These results are taken from ChEMBL document CHEMBL1208782, “Synthesis and pharmacological validation of a novel series of non-steroidal FXR agonists” (Bioorg Med Chem Lett, 2010).

What all share (assay type): functional, cell-based
For experiment [1], the target named is T1, Estrogen receptor (Homo sapiens) (UniProt P03372).
T1 sequence (whole entry): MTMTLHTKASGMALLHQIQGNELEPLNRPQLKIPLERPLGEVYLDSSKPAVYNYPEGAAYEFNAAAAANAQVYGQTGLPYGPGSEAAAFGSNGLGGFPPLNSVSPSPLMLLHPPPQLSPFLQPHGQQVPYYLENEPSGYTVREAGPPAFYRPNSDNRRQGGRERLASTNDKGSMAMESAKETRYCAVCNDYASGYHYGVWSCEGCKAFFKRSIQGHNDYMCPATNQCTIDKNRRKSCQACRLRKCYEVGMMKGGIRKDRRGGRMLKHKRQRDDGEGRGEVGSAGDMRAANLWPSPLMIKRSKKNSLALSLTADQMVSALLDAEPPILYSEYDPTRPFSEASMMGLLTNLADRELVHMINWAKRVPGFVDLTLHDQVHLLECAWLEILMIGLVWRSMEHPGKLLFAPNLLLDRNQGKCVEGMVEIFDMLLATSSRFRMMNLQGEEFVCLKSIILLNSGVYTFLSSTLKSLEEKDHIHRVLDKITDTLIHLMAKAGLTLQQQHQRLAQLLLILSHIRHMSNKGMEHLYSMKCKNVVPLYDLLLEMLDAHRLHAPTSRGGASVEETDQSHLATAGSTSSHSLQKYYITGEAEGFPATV
As to the kind of experiment: Agonist activity at ERalpha-LBD expressed in HEK293 cells assessed as Gal4-DBD interaction by cellular mammalian one hybrid assay relative to 17-beta-estradiol.

Experiment [2] deals with T2, Androgen receptor (Homo sapiens) (UniProt P10275).
T2 sequence (whole entry): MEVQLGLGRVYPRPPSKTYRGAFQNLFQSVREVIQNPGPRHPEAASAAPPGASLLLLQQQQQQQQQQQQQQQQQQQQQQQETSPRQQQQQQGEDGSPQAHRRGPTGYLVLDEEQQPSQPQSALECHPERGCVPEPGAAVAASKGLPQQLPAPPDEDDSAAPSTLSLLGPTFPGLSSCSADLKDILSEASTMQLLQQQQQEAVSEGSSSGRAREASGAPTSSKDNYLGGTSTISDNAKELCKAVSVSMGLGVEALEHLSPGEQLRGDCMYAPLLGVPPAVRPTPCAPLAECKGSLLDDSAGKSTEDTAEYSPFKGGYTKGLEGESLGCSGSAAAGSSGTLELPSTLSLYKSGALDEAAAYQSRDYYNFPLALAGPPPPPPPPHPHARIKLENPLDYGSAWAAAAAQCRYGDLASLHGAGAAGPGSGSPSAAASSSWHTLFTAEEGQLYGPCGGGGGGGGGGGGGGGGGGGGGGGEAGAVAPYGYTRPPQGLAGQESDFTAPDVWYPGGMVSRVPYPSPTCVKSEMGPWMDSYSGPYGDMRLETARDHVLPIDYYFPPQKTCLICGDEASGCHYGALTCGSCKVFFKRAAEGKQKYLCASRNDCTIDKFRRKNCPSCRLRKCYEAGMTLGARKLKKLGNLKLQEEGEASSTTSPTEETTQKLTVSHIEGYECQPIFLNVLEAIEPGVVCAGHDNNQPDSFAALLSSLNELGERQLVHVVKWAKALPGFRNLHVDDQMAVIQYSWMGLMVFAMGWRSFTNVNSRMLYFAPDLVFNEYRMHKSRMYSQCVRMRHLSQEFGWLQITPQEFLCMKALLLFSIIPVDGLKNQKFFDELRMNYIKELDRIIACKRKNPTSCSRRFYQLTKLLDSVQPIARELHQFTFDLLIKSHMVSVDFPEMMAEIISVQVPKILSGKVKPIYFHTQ
Briefly: Agonist activity at androgen receptor-LBD expressed in HEK293 cells assessed as Gal4-DBD interaction by cellular mammalian one hybrid assay relative to androgen.

Experiment [3] concerns the target T3, Retinoic acid receptor RXR-alpha (Homo sapiens) (UniProt P19793).
T3 sequence (whole entry): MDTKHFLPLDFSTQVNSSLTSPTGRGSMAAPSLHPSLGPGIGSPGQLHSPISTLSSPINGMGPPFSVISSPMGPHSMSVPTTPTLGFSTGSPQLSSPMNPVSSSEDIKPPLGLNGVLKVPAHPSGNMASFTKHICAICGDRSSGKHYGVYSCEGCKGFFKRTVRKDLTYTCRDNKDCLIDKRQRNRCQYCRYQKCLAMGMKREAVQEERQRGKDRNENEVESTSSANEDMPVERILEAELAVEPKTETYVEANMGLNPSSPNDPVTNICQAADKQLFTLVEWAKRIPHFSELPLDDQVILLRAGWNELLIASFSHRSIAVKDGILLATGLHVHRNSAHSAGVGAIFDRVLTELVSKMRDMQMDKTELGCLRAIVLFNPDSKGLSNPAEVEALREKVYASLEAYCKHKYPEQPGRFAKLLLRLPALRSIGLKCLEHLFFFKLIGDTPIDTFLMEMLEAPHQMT
Briefly: Agonist activity at RXRalpha-LBD expressed in HEK293 cells assessed as Gal4-DBD interaction by cellular mammalian one hybrid assay relative to retinoic acid.

The target in experiment [4] is T4, Vitamin D3 receptor (Homo sapiens) (UniProt P11473).
T4 sequence (whole entry): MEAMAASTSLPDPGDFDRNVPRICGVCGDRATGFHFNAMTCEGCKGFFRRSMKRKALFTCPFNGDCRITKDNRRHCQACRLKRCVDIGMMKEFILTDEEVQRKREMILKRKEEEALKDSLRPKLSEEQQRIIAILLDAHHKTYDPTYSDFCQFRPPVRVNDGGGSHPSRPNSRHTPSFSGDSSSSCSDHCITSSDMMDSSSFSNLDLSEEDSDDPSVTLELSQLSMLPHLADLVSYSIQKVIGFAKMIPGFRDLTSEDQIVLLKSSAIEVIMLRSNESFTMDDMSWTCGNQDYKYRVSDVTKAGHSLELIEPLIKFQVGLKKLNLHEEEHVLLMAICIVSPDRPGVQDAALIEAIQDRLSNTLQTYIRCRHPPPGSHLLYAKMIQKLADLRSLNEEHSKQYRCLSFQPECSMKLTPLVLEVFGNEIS
Briefly: Agonist activity at VDR-LBD expressed in HEK293 cells assessed as Gal4-DBD interaction by cellular mammalian one hybrid assay relative to vitamin D.

Consider `CC(C)c1onc(-c2c(Cl)cccc2Cl)c1COc1ccc(N(C)Cc2ccc(C(=O)O)cc2)c(C(F)(F)F)n1`, for which the Efficacy in experiment [1], in experiment [2], in experiment [3] and in experiment [4] was 0% each time.
For the molecule `CN(Cc1ccc(C(=O)O)cc1)c1ccc(OCc2c(-c3c(Cl)cccc3Cl)noc2C2CC2)nc1C(F)(F)F`, the Efficacy in experiment [1], in experiment [2], in experiment [3] and in experiment [4] was 0% each time.
For `CN(Cc1cccc(C(=O)O)c1)c1ccc(OCc2c(-c3c(Cl)cccc3Cl)noc2C2CC2)nc1C(F)(F)F`, the Efficacy in experiment [1] came out at 24%; in experiment [2] it was 0%; in experiment [3] it was 0%; in experiment [4], 0%.
